The source made the active and inactive calls. The calls are words filed in the database; no cut-off is given here.
Columns and labels:
[1] = test system: Mammaliicoccus lentus; assay: Antibacterial activity against Staphylococcus lentus; format: functional
[2] = test system: Bacillus subtilis; assay: Antibacterial activity against Bacillus subtilis; format: functional
[3] = test system: Escherichia coli; assay: Antibacterial activity against Escherichia coli; format: functional, organism-based
[4] = test system: Pseudomonas fluorescens; assay: Antibacterial activity against Pseudomonas fluorescens; format: functional, organism-based
[5] = test system: Pseudomonas syringae; assay: Antibacterial activity against Pseudomonas syringae; format: functional, organism-based
[6] = test system: Xanthomonas campestris; assay: Antibacterial activity against Xanthomonas campestris; format: functional, organism-based
[7] = test system: Erwinia amylovora; assay: Antibacterial activity against Erwinia amylovora; format: functional, organism-based
[8] = test system: Ralstonia solanacearum; assay: Antibacterial activity against Ralstonia solanacearum; format: functional, organism-based
[9] = test system: Nakaseomyces glabratus; assay: Antibacterial activity against Candida glabrata; format: functional, organism-based

| SMILES | Activity [1] | Activity [2] | Activity [3] | Activity [4] | Activity [5] | Activity [6] | Activity [7] | Activity [8] | Activity [9] |
| --- | --- | --- | --- | --- | --- | --- | --- | --- | --- |
| COC(=O)c1cccc2nc3c(C(C(=O)OC)C(O)CCCC(C)C)cccc3nc12 (stereo unspecified) [STREPTOPHENAZINE A] | 62.5 µg/mL | 46.9 µg/mL | inactive | inactive | inactive | inactive | inactive | inactive | inactive |
| CCCCCCC(O)C(C(=O)OC)c1cccc2nc3c(C(=O)OC)cccc3nc12 (stereo unspecified) [STREPTOPHENAZINE B] | 62.5 µg/mL | inactive | inactive | inactive | inactive | inactive | inactive | inactive | inactive |
| COC(=O)C(c1cccc2nc3c(C(=O)O)cccc3nc12)C(O)CCCC(C)C (stereo unspecified) [STREPTOPHENAZINE C] | 46.9 µg/mL | 15.6 µg/mL | inactive | inactive | inactive | inactive | inactive | inactive | inactive |
| COC(=O)c1cccc2nc3c(C(C(=O)OC)C(O)CCC(C)C)cccc3nc12 (stereo unspecified) [STREPTOPHENAZINE D] |  | 62.5 µg/mL |  |  |  |  |  |  | inactive |
| CCCCC(O)C(C(=O)OC)c1cccc2nc3c(C(=O)OC)cccc3nc12 (stereo unspecified) [STREPTOPHENAZINE E] |  | 62.5 µg/mL |  |  |  |  |  |  | inactive |
| COC(=O)c1cccc2nc3c(C(C(=O)OC)C(O)CCCCC(C)C)cccc3nc12 (stereo unspecified) [STREPTOPHENAZINE F] | 62.5 µg/mL | inactive | inactive | inactive | inactive | inactive | inactive | inactive | inactive |
| CCC(C)CCCC(O)C(C(=O)OC)c1cccc2nc3c(C(=O)OC)cccc3nc12 (stereo unspecified) [STREPTOPHENAZINE G] | 62.5 µg/mL | inactive | inactive | inactive | inactive | inactive | inactive | inactive | inactive |
| COC(=O)c1cccc2nc3c(C(C(=O)OC)C(O)CCCC(C)(C)O)cccc3nc12 (stereo unspecified) [STREPTOPHENAZINE H] |  | 15.6 µg/mL |  |  |  |  |  |  | inactive |

From ChEMBL document CHEMBL1150242, “Subinhibitory concentrations of antibiotics induce phenazine production in a marine Streptomyces sp” (2008)
